From US20250129135A1, “Multi-Agonist and Use Thereof” (priority 2021, published 2025)
Starred links: 1 amine or outer side, 2 acyl side, 3 side chain; linkers in the order of their positions; H or OH if unused. Non-standard residues stand in square brackets, D forms with d. Residues, ends and D or L forms follow the SMILES beside them. Groups on a side chain read outwards from the residue. No end group written: not given here. *: point of attachment. C20 diacid = O=C(O)CCCCCCCCCCCCCCCCCCC(=O)*; αMePhe(2-F) = C[C@](N)(Cc1ccccc1F)C(=O)O; γGlu = O=C(O)[C@H](CCC(=O)[*:2])N[*:1]; αMeL = CC(C)C[C@](C)(N)C(=O)O; AEEA = NCCOCCOCC(=O)O; Ac3c = NC1(C(=O)O)CC1; Aib = CC(C)(N)C(=O)O

Tests used:
[1] = Rat pharmacokinetics (PK) study; assay type: in vivo; settings: sc, male SD rats, subcutaneous 30 nmol/kg, plasma
Procedure: 7˜9 weeks old male SD rats (220-250 g, 3 rats/group) were subjected to subcutaneous injection of 30 nmol/kg compound. After administration, blood was collected through the jugular vein at time points 0.25, 2, 4, 8, 12, 16, 24, 48, 96, 120, and 144 hours. The blood was processed to obtain plasma samples and analyzed using LC-MS/MS. The blood concentration time curve was analyzed using Phoenix WinNonlin version 6.3 software (non compartment model), and PK parameters and half-life were calculated.

3T3-L1 adipocytes = test system: 3T3-L1 adipocytes
How it was run: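 Mouse 3T3-L1 preadipocytes were differentiated with IBMX, dexamethasone and insulin for 5 days, then insulin plus 10 uM rosiglitazone for 3 days, then 10% FBS medium for 2–3 days. Mature adipocytes received 10-point, 3-fold compound dilutions for 60 min at room temperature. cAMP was read by kit detection reagent after a further 60 min, with concentration-effect curves fitted.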

C57 BL/6J DIO mice = assay: In vivo pharmacodynamics in high-fat diet induced obesity (DIO) mice; design: species or system mouse; settings: Mean±SEM; for Weight change: Table 6-1; for LDL-C / TC (total cholesterol) / TG (plasma triglycerides): Table 7-1
From the text: High-fat diet induced obesity (DIO) mice have characteristics such as obesity, elevated blood sugar, insulin resistance, and lipid abnormalities, all of which are very significant metabolic syndromes similar to a human body. The effects of the compounds of the present application on body weight, food intake, blood sugar, and lipids in C57 BL/6J DIO mice were studied.
Obesity was induced in mice by feeding with a high-fat diet (60 kcal % of calories from fat). […] After grouping, one animal was raised in each cage for one week, during which each of the animals was injected subcutaneously (S.C.) with a solvent (1×PBS, 5 ml/kg) to pre-adapt the experimental operation process.
After the preparation of animals, vehicle control or compounds were administered to groups of animals by subcutaneous injection, in which the compounds were dissolved in 1×PBS, the dosage was 5 ml/kg, and the administration operation was started at 9:00 am and conducted once every three days (Q3D) for 15 days. Throughout the entire experimental study, animal weight and food intake were measured daily before administration, and compared with initial weight and food intake of the same animal before administration to calculate a percentage change in animal weight (%) and cumulative food intake, so as to evaluate the impact of compounds on changes in body weight and food intake.
At the end point of the experiment (Day 15), the body weight of the mice was measured, and then fasting blood glucose was measured by taking blood from the tail tip of broken tail without anesthesia. After the blood collection, the animals were anesthetized with CO2 and euthanized. Then, blood was taken from the heart and plasma was separated by centrifugation. The plasma was used to measure total cholesterol (TC), low-density lipoprotein cholesterol (LDL-C), triglycerides (TG), and blood insulin content. The liver was separated for homogenization, and then centrifuged to obtain the supernatant for determining triglyceride content in the liver.
All results were expressed in Mean±SEM, and the results were analyzed by one-way ANOVA using GraphPad Prism 5 software, followed by Dunnett's post hoc test compared to the Vehicle control group. The difference at the p<0.05 level was considered statistically significant.

RIN-m5F cells = assay type: cell-based, rat
How it was run: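 cAMP production measured in RIN-m5F cells resuspended in HBSS; compounds incubated 60 min at room temperature, then detection reagent added for a further 60 min before read-out.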

[2] = test system: human primary liver cells; assay type: cell-based
How it was run: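 Human primary hepatocytes, thawed at 37° C and resuspended in HBSS, exposed to compound for 60 min at room temperature. Detection reagent then added for 60 min before cAMP readout.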

Human GIP R = molecular target: T1, Human GIP R (Homo sapiens, UniProt P48546); assay: cAMP (HTRF) activity in CHO cells stably overexpressing GIP receptor; assay type: cell-based; settings: EC50 of human GIP / EC50 of compound
T1 construct: expressed in transfected cells; host or cells: CHO
T1 sequence (P48546 22-466): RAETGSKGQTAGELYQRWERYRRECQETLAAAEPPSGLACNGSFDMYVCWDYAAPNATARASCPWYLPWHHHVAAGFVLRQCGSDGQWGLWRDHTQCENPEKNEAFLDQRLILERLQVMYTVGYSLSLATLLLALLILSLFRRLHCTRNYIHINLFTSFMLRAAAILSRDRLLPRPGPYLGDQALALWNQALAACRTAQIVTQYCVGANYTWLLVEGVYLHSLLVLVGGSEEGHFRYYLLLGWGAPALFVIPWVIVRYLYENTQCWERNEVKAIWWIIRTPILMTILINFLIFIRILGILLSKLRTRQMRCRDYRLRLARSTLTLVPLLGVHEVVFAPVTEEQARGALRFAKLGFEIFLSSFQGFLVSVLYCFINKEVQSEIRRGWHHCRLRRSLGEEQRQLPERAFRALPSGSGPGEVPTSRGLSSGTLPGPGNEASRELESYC
How it was run: (§1)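 Cells resuspended in HBSS are incubated with compound for 60 min at room temperature, then with HTRF cAMP detection reagent for a further 60 min. Concentration-response fits give agonist EC50 values in nM.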

Human GCG R = molecular target: T2, Human GCG R (Homo sapiens, UniProt P47871); assay: cAMP (HTRF) activity in HEK-293 cells stably overexpressing human GCG receptor; assay type: cell-based; settings: EC50 of human GCG / EC50 of compound
T2 construct: expressed in transfected cells; host or cells: HEK-293
How it was run: as §1

Human GLP-1R = Human GLP-1R (Homo sapiens, UniProt P43220); assay: cAMP (HTRF) activity in HEK-293 cells stably overexpressing human GLP-1 receptor; assay type: cell-based; design: expressed in transfected cells; host or cells: HEK-293
How it was run: as §1

[3] = molecular target: T3, human GIP receptor (human) (UniProt P48546); assay: cell-based or functional assay
T3 sequence (looked up): T1 sequence (P48546 22-466)

Sequence of Human GLP-1R (P43220 24-463): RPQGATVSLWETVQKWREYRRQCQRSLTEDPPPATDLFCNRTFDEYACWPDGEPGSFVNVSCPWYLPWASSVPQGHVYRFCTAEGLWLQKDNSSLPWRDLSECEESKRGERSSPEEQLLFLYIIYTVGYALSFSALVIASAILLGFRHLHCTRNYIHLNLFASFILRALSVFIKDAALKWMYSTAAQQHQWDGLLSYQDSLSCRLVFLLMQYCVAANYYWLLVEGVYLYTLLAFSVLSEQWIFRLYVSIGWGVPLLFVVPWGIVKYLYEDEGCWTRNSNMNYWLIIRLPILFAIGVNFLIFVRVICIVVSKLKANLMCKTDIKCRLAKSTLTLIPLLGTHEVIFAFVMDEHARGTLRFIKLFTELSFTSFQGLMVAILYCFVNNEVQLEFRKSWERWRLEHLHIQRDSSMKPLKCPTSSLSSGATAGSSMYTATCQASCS
T2 sequence (P47871 26-477): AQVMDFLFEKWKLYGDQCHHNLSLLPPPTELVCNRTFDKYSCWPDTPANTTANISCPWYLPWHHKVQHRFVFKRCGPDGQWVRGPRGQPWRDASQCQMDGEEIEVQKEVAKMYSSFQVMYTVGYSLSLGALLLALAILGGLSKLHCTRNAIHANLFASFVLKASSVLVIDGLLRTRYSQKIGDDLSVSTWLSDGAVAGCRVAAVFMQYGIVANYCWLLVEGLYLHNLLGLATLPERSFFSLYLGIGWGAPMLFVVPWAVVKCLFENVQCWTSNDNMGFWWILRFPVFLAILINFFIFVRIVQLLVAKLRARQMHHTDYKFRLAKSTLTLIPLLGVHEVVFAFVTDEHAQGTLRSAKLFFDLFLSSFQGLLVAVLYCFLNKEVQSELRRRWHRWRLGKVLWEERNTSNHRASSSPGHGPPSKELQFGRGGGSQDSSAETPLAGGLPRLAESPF

CC[C@H](C)[C@H](NC(=O)[C@H](Cc1ccccc1)NC(=O)[C@H](C)NC(=O)C(C)(C)NC(=O)[C@H](CCC(N)=O)NC(=O)[C@H](C)NC(=O)[C@H](CCCCNC(=O)COCCOCCNC(=O)COCCOCCNC(=O)CC[C@H](NC(=O)CCCCCCCCCCCCCCCCCCC(=O)O)C(=O)O)NC(=O)[C@H](CCCCN)NC(=O)[C@H](CC(=O)O)NC(=O)[C@H](CC(C)C)NC(=O)[C@](C)(CC(C)C)NC(=O)[C@@H](NC(=O)[C@H](CO)NC(=O)[C@H](Cc1ccc(O)cc1)NC(=O)[C@H](CC(=O)O)NC(=O)[C@H](CO)NC(=O)[C@@H](NC(=O)[C@](C)(Cc1ccccc1)NC(=O)[C@@H](NC(=O)CNC(=O)[C@H](CCC(N)=O)NC(=O)C(C)(C)NC(=O)[C@@H](N)Cc1ccc(O)cc1)[C@@H](C)O)[C@@H](C)O)[C@@H](C)CC)C(=O)N[C@@H](CCC(=O)O)C(=O)N[C@@H](Cc1ccc(O)cc1)C(=O)N[C@@H](CC(C)C)C(=O)N[C@@H](CC(C)C)C(=O)N[C@@H](CCC(=O)O)C(=O)N[C@@H](CO)C(=O)N[C@@H](Cc1c[nH]cn1)C(=O)N1CCC[C@H]1C(=O)N[C@@H](CO)C(=O)N[C@@H](CO)C(=O)NCC(=O)N[C@@H](C)C(=O)N1CCC[C@H]1C(=O)N1CCC[C@H]1C(=O)NC1(C(=O)N[C@@H](CO)C(N)=O)CC1 [Compound 3]
AUC(0-t) [1]: 6.69 µM·h | Cmax [1]: 149 nM | Tmax [1]: 21.3 h | half-life [1]: 19.1 h | EC50 (3T3-L1 adipocytes): 1870 pM | Weight change (C57 BL/6J DIO mice; 3 nmol/kg s.c. Q3D for 15 days): −21.2 ± 0.75% | Weight change (C57 BL/6J DIO mice; 10 nmol/kg s.c. Q3D for 15 days): −32.4 ± 2.94% | Weight change (C57 BL/6J DIO mice; 30 nmol/kg s.c. Q3D for 15 days): −51.6 ± 1.21% | LDL-C (C57 BL/6J DIO mice; 3 nmol/kg, Day 15): 0.52 ± 0.033 mM | TC (total cholesterol) (C57 BL/6J DIO mice; 3 nmol/kg, Day 15): 3.42 ± 0.214 mM | TG (plasma triglycerides) (C57 BL/6J DIO mice; 3 nmol/kg, Day 15): 0.87 ± 0.066 mM | LDL-C (C57 BL/6J DIO mice; 30 nmol/kg, Day 15): 0.37 ± 0.035 mM | TC (total cholesterol) (C57 BL/6J DIO mice; 30 nmol/kg, Day 15): 2.15 ± 0.079 mM | TG (plasma triglycerides) (C57 BL/6J DIO mice; 30 nmol/kg, Day 15): 0.55 ± 0.022 mM | Blood sugar (fasting blood glucose) (C57 BL/6J DIO mice; Table 8-1, 3 nmol/kg, Day 15): 107.5 ± 5.17 mg/dL | Insulin (blood) (C57 BL/6J DIO mice; Table 8-1, 3 nmol/kg, Day 15): 25.4 ± 16.90 mIU/L | Liver TG (C57 BL/6J DIO mice; Table 9-1, 3 nmol/kg, Day 15): 32.2 ± 2.99 mg | EC50 (RIN-m5F cells): 400 pM | EC50 [2]: 1590 pM

CC[C@H](C)[C@H](NC(=O)[C@H](Cc1ccccc1)NC(=O)[C@H](C)NC(=O)C(C)(C)NC(=O)[C@H](CCC(N)=O)NC(=O)[C@H](C)NC(=O)[C@H](CCCCNC(=O)COCCOCCNC(=O)COCCOCCNC(=O)CC[C@H](NC(=O)CCCCCCCCCCCCCCCCCCC(=O)O)C(=O)O)NC(=O)[C@H](CCCCN)NC(=O)[C@H](CC(=O)O)NC(=O)[C@H](CC(C)C)NC(=O)[C@](C)(CC(C)C)NC(=O)[C@@H](NC(=O)[C@H](CO)NC(=O)[C@H](Cc1ccc(O)cc1)NC(=O)[C@H](CC(=O)O)NC(=O)[C@H](CO)NC(=O)[C@@H](NC(=O)[C@](C)(Cc1ccccc1F)NC(=O)[C@@H](NC(=O)CNC(=O)[C@H](CCC(N)=O)NC(=O)C(C)(C)NC(=O)[C@@H](N)Cc1ccc(O)cc1)[C@@H](C)O)[C@@H](C)O)[C@@H](C)CC)C(=O)N[C@@H](CCC(=O)O)C(=O)N[C@@H](Cc1ccccc1)C(=O)N[C@@H](CC(C)C)C(=O)N[C@@H](CC(C)C)C(=O)N[C@@H](CCC(=O)O)C(=O)N[C@@H](CO)C(=O)N[C@@H](Cc1c[nH]cn1)C(=O)N1CCC[C@H]1C(=O)N[C@@H](CO)C(=O)N[C@@H](CO)C(=O)NC(C)(C)C(=O)N[C@@H](Cc1c[nH]cn1)C(=O)N1CCC[C@H]1C(=O)N1CCC[C@H]1C(=O)NC1(C(=O)N[C@@H](CO)C(N)=O)CC1 [Compound 40] (H-Y[Aib]QGT[αMePhe(2-F)]TSDYSI[αMeL]LDKK([AEEA-AEEA-γGlu-C20 diacid])AQ[Aib]AFIEFLLESHPSS[Aib]HPP[Ac3c]S-NH2)
EC50 (3T3-L1 adipocytes): 2560 pM | Rel. A (Relative Activity) on 3T3-L1 adipocyte (3T3-L1 adipocytes; relative to GIP): 148.46% | Human GIP R Rel. A (Relative Activity) (Human GIP R): 150.83% | Liver TG (C57 BL/6J DIO mice; Table 9-2, 3 nmol/kg, Day 15): 42.1 ± 5.22 mg | Human GCG R Rel. A (Relative Activity) (Human GCG R): 34.13% | Human GLP-1R Rel. A (Relative Activity) (Human GLP-1R; EC50 of human GLP-1 (7-37) / EC50 of compound): 275.00% | EC50 (Human GLP-1R; stable transfected cell cAMP activity, at least 3 independent tests): 16 pM | EC50 (RIN-m5F cells): 160 pM | Rel. A (Relative Activity) on RIN-m5F (RIN-m5F cells; relative to GLP-1(7-37)): 645.00% | EC50 [2]: 1070 pM | Rel. A (Relative Activity) on human primary liver cells ([2]; relative to GCG): 364.33%

B1: Tirzepatide (peptide)
peptide: Y[Aib]QGTFTSDYSI[Aib]LDKIAQK([AEEA-AEEA-γGlu-C20 diacid])AFVQWLIAGGPSSGAPPPS-NH2
modifications: N-terminus assumed
SMILES: CC[C@H](C)[C@H](NC(=O)[C@H](CC(C)C)NC(=O)[C@H](Cc1c[nH]c2ccccc12)NC(=O)[C@H](CCC(N)=O)NC(=O)[C@@H](NC(=O)[C@H](Cc1ccccc1)NC(=O)[C@H](C)NC(=O)[C@H](CCCCNC(=O)COCCOCCNC(=O)COCCOCCNC(=O)CC[C@H](NC(=O)CCCCCCCCCCCCCCCCCCC(=O)O)C(=O)O)NC(=O)[C@H](CCC(N)=O)NC(=O)[C@H](C)NC(=O)[C@@H](NC(=O)[C@H](CCCCN)NC(=O)[C@H](CC(=O)O)NC(=O)[C@H](CC(C)C)NC(=O)C(C)(C)NC(=O)[C@@H](NC(=O)[C@H](CO)NC(=O)[C@H](Cc1ccc(O)cc1)NC(=O)[C@H](CC(=O)O)NC(=O)[C@H](CO)NC(=O)[C@@H](NC(=O)[C@H](Cc1ccccc1)NC(=O)[C@@H](NC(=O)CNC(=O)[C@H](CCC(N)=O)NC(=O)C(C)(C)NC(=O)[C@@H](N)Cc1ccc(O)cc1)[C@@H](C)O)[C@@H](C)O)[C@@H](C)CC)[C@@H](C)CC)C(C)C)C(=O)N[C@@H](C)C(=O)NCC(=O)NCC(=O)N1CCC[C@H]1C(=O)N[C@@H](CO)C(=O)N[C@@H](CO)C(=O)NCC(=O)N[C@@H](C)C(=O)N1CCC[C@H]1C(=O)N1CCC[C@H]1C(=O)N1CCC[C@H]1C(=O)N[C@@H](CO)C(N)=O
cAMP EC50, CHO cells stably overexpressing human GIP R [3]: 210 pM | cAMP Rel. A (%) against human GIP, human GIP R cells [3]: 86.2%
